Data reported in article PMC4806491, “The milk-derived fusion peptide, ACFP, suppresses the growth of primary human ovarian cancer cells by regulating apoptotic gene expression and signaling pathways” (BMC Cancer, 2016).
Read-outs that look alike come from different tables or passages of the source. Positions of bridges follow the written chain, without caps; N, C: chain ends. Residues, ends and D or L forms follow the SMILES beside them.

Tested on: primary ovarian cancer cells
Conditions: High dose 5×10^-3 g/L, 48 h
Description: We utilized cDNA microarrays to observe the effect of ACFP on gene expression in primary ovarian cancer cells. Cells were treated with 0 (the vehicle group, as control), 5 × 10^6 g/L and 5 × 10^3 g/L ACFP, respectively, and cultured for 48 h at 37 °C in 5 % CO2. Cells were later digested and collected for total RNA extraction using Trizol. The RNA concentrations and purities were detected with a spectrophotometer. The experiments were performed in duplicate on a single total RNA preparation from the cells. Signal values were presented as the mean value of two replicate experiments. RNA samples were used to generate human whole genome expression profiling microarray (Yeli Bioscience Co., Ltd.; Shanghai, China). RNA was subsequently converted into digoxigenin-labeled complementary RNA and hybridized to a human genome microarray system (Human OneArray Microarray, from Phalanx Biotech Group, Taiwan). The chips were scanned by a GeeDom® LuxScan 10 K microarray scanner. LuxScan3.0 software was used to extract probe fluorescence signals and analyze images. Finally, the original data were processed by normalizing.

SMILES: CC[C@H](C)[C@@H]1NC(=O)[C@H](CO)NC(=O)[C@@H]2CCCN2C(=O)[C@H](C)NC(=O)CNC(=O)[C@H](CC(C)C)NC(=O)[C@H](CCCCN)NC(=O)[C@H](CCCCN)NC(=O)[C@H](CCSC)NC(=O)[C@H](CCCNC(=N)N)NC(=O)[C@H](Cc2c[nH]c3ccccc23)NC(=O)[C@H](CCC(N)=O)NC(=O)[C@H](Cc2c[nH]c3ccccc23)NC(=O)[C@H](CCCNC(=N)N)NC(=O)[C@H](CCCNC(=N)N)NC(=O)[C@@H](NC(=O)[C@H](CCCCN)NC(=O)[C@@H](N)Cc2ccccc2)CSSC[C@@H](C(=O)N[C@H](C(=O)N[C@@H](CCCNC(=N)N)C(=O)N[C@@H](CCCNC(=N)N)C(=O)N[C@@H](C)C(=O)N[C@@H](Cc2ccccc2)C(=O)NCC(=O)NCC(=O)NCC(=O)NCC(=O)N[C@@H](CO)C(=O)N2CCC[C@H]2C(=O)NCC(=O)N2CCC[C@H]2C(=O)N[C@H](C(=O)N2CCC[C@H]2C(=O)N[C@@H](CC(N)=O)C(=O)O)[C@@H](C)CC)C(C)C)NC(=O)[C@H]([C@@H](C)O)NC1=O [ACFP] (H-FKCRRWQWRMKKLGAPSITCVRRAFGGGGSPGPIPN-OH; disulfide 3-20; N-terminus and C-terminus assumed)
- GTF2IP1 Ratio (ACFP/control) (NM-002970): 0.24
- IGFBP5 Ratio (ACFP/control) (NM-003488): 0.23
- MYLK Ratio (ACFP/control) (NM-004638): 0.23
- NKX3-1 Ratio (ACFP/control) (NM-004824): 3.11
- PLA2G5 Ratio (ACFP/control) (NM-005322): 0.46
- POLH Ratio (ACFP/control) (NM-005429): 0.12
- PSMA1 Ratio (ACFP/control) (NM-005682): 0.49
- STAT5B Ratio (ACFP/control) (NM-006777): 2.03
- STAT6 Ratio (ACFP/control) (NM-006778): 10.8
- UPP1 Ratio (ACFP/control) (NM-007378): 0.42
- TNFSF18 Ratio (ACFP/control) (NM-008995): 0.41
- MAP4K4 Ratio (ACFP/control) (NM-009448): 0.41
- BTF/BCLAF1 Ratio (ACFP/control) (NM-009774): 2.79
- TMEFF1 Ratio (ACFP/control) (NM-016522): 7.91
- RAB18 Ratio (ACFP/control) (NM-022931): 0.25
- TCF/LEF1 Ratio (ACFP/control) (NM-051176): 0.35
- PINX1 Ratio (ACFP/control) (NM-054984): 0.47
- RINT-1 Ratio (ACFP/control) (NM-060561): 0.17
- C17orf37 Ratio (ACFP/control) (NM-084299): 0.38
- ZNF512 Ratio (ACFP/control) (NM-084450): 0.47
- AKT1 Ratio (ACFP/control) (NM_000207): 0.27
- ARHE Ratio (ACFP/control) (NM_000390): 3.39
- BAG1 Ratio (ACFP/control) (NM_000573): 0.33
- BAX Ratio (ACFP/control) (NM_000581): 6.35
- BCL-xl Ratio (ACFP/control) (NM_000598): 0.19
- C1QG Ratio (ACFP/control) (NM_000714): 2.68
- CASP3 Ratio (ACFP/control) (NM_000836): 5.34
- CCNB1 Ratio (ACFP/control) (NM_000891, cyclinB1): 0.21
- TNFRSF8 Ratio (ACFP/control) (NM_000943, first entry): 3.22
- TNFRSF8 Ratio (ACFP/control) (NM_000943, second entry): 3.22
- CDC25C Ratio (ACFP/control) (NM_000995): 0.32
- CDKN1A Ratio (ACFP/control) (NM_001026): 6.58
- CDKN1A/p21 Ratio (ACFP/control) (NM_001026, second entry): 3.58
- CKS2 Ratio (ACFP/control) (NM_001164): 8.95
- DVL1 Ratio (ACFP/control) (NM_001855): 2.46
- GRK4 Ratio (ACFP/control) (NM_002868): 0.37
- GRK5 Ratio (ACFP/control) (NM_002869): 0.47
- GRK6 Ratio (ACFP/control) (NM_002870): 0.26
- GSTM4 Ratio (ACFP/control) (NM_002948): 2.72
- GSTM5 Ratio (ACFP/control) (NM_002949): 4.84
- IRF7 Ratio (ACFP/control) (NM_003665): 4.50
- ITGA5 Ratio (ACFP/control) (NM_003678): 0.43
- PKIA Ratio (ACFP/control) (NM_005569): 2.74
- MAPK3/ERK1 Ratio (ACFP/control) (NM_005595): 0.35
- MAPK8/JNK1 Ratio (ACFP/control) (NM_005599): 2.74
- MAPK13/p38 delta Ratio (ACFP/control) (NM_005603): 3.04
- PSMB8 Ratio (ACFP/control) (NM_005696): 3.24
- TNFRSF1A Ratio (ACFP/control) (NM_007132, first entry): 2.15
- TNFRSF1A Ratio (ACFP/control) (NM_007132, second entry): 2.08
- ZNF12 Ratio (ACFP/control) (NM_007559): 3.66
- BAT5 Ratio (ACFP/control) (NM_007920): 7.48
- PABPN1 Ratio (ACFP/control) (NM_008106): 9.8
- TNFRSF10B Ratio (ACFP/control) (NM_008795): 4.85
- STK17B Ratio (ACFP/control) (NM_009262): 2.97
- TRAF4 Ratio (ACFP/control) (NM_009618): 3.62
- USP34 Ratio (ACFP/control) (NM_009736): 4.52
- GOLGA5 Ratio (ACFP/control) (NM_009950): 2.95
- SUI1 Ratio (ACFP/control) (NM_010209): 9.85
- SPINT2 Ratio (ACFP/control) (NM_010653): 10.25
- PIK3R5 Ratio (ACFP/control) (NM_023533): 0.44
- CARD10 Ratio (ACFP/control) (NM_029775): 4.32
- FLJ39616 Ratio (ACFP/control) (NM_051275): 2.53
- GNG12 Ratio (ACFP/control) (NM_055970): 8.30
- BCORL1 Ratio (ACFP/control) (NM_063035): 0.25
- CARD14 Ratio (ACFP/control) (NM_079092): 3.06
- BCL2L14 Ratio (ACFP/control) (NM_079370): 2.57
- FLJ13848 Ratio (ACFP/control) (NM_079829): 9.45
- SNARK Ratio (ACFP/control) (NM_081788): 3.11
- C1QTNF6 Ratio (ACFP/control) (NM_114904, first entry): 6.26
- C1QTNF6 Ratio (ACFP/control) (NM_114904, second entry): 6.26
- LOC441241 Ratio (ACFP/control) (NM_441241): 5.22
